Data as given in patent US20100086529A1, “METHODS OF MAKING CONCENTRATED FIBRINOGEN- AND PLATELET-CONTAINING COMPOSITIONS” (priority 2008, published 2010).

Assays:
[1] = Tensile strength of fibrin clots (dog-bone mold, Instron); settings: 15 mg/mL fibrinogen concentrate, calcium chloride 1.8 to 100 mM tested
Experimental: The tensile strength of fibrin clots is tested. […] The narrow neck provided the weakest point where the clot would break; the force at which the clot breaks serves as an indication of its tensile strength.
Test samples are prepared by simultaneously emptying syringes of fibrinogen and thrombin into a common duct where the mixture entered the mold through the sponge on one end and exited through the sponge on the other end. […] After the sample is given time to “cure,” (30 minutes unless various cure times were being tested), the plexiglass mold is dissembled, and the clot is transferred to an Instron Model 1120 Universal Testing Instrument (Instron Corp., Norwood, Mass., max load 500 g) where it is held on the ends via the sponge “grips”. A stress-strain curve is recorded while the sample is strained at 100 mm/min until it ruptured. The tensile strength is recorded as the maximum stress sustained.
Samples are prepared from a 15 mg/mL pure fibrinogen concentrate (as prepared in Example 4) as follows:
The effect of cure time on tensile strength and adhesion strength is evaluated by allowing the molded clots and the glued aortic strips (described in Example 9) to cure for 1, 5, 10, 15, 30, and 60 minutes at 22° C.
Controls of pooled human plasma (fibrinogen concentration ˜3 mg/mL), pure fibrinogen (15 mg/mL), and Tisseel (average fibrinogen concentration ˜95 mg/mL) are used. […]

[2] = Adhesion strength of fibrin clots between strips of aortic tissue (Instron); settings: 15 mg/mL fibrinogen concentrate, calcium chloride 1.8 to 100 mM tested
Experimental: The adhesive strength of fibrin clots is tested. The adhesion strength of the fibrin glue is assessed by sandwiching the fibrin glue between two strips of aortic tissue and then pulling them apart, simulating the performance of the sealant bonding to tissue. Bovine aorta is prepared by slitting the aorta lengthwise and laying it flat. The aorta is then cut into smaller strips, each approximately 3 cm long and 1 cm wide. […] Sealant is applied (0.1 mL), covering an area of approximately 1 cm^2, to the exposed media as shown. An overlapping joint is formed (approximately one-third the length of each strip) and allowed to “cure” while held in place with a 100 g weight for 30 minutes at 22° C. The non-overlapping ends of the cured samples are clamped in an Instron Model 1120 Universal Testing Instrument (max load 500 g), and a stress-strain curve is recorded while the sample is strained at 100 mm/min until the overlapping (glued) joint failed. Adhesion strength is taken as the maximum stress sustained divided by the joint area (indicated by the glue still visible after the joint failed and measured with a digital caliper).
The effect of cure time on tensile strength and adhesion strength is evaluated by allowing the molded clots and the glued aortic strips (described in Example 9) to cure for 1, 5, 10, 15, 30, and 60 minutes at 22° C. […]

[3] = Clottability of precipitated fibrinogen with bovine thrombin (ELISA of clot supernatant, by difference); format: biochemical, human; settings: blood collected into heparin 2 U/mL
Experimental: The clottability of the recovered fibrinogen is evaluated as follows. A fibrinogen solution as prepared in Example 3 is prepared and used. To 1 mL of the fibrinogen solution 100 μL of bovine thrombin (Vital Products, Inc, Boynton Beach, Fla., 500 Units/mL) is added and the clot is allowed to stand for 30 minutes at 22° C. The clot is then centrifuged for 2 min at 3500 g and the supernatant removed. The amounts of fibrinogen present in the concentrated composition and in the clot supernatant are determined by ELISA, and the fibrinogen present in the clot is determined by difference. […] The amounts of fibrinogen and Factor XIII in the clot supernatant and in the concentrate can be measured with ELISA, and the amounts of fibrinogen and Factor XIII remaining in the clot can be determined by difference.

fibrinogen = biological target: T1, fibrinogen (Homo sapiens, UniProt P02671+P02675+P02679); test: Fibrinogen precipitation from plasma by protamine (recovery in the concentrate, ELISA / Clauss method); settings: n=4
T1 construct: Fibrinogen is precipitated from pooled human plasma by addition of protamine sulfate; from tissue; host or cells: human blood plasma (pooled human plasma / platelet-poor plasma of healthy adult donors)
T1 sequence (P02671 20-629 limits assumed): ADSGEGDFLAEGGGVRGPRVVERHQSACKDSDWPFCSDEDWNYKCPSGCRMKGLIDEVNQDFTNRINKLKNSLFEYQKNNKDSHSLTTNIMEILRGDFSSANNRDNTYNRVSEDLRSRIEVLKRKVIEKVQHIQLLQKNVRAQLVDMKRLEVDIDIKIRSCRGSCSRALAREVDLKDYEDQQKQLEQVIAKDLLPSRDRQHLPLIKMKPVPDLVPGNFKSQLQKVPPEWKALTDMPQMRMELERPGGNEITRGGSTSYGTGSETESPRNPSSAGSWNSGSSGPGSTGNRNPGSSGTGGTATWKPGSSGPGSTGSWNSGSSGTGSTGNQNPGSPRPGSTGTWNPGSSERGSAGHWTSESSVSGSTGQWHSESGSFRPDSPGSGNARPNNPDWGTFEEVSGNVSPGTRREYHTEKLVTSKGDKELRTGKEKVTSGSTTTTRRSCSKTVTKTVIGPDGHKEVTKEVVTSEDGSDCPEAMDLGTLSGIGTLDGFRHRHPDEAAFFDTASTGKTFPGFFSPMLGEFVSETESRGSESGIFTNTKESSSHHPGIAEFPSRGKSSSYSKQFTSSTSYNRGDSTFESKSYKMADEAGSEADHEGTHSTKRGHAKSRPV
T1 sequence (P02675 31-491): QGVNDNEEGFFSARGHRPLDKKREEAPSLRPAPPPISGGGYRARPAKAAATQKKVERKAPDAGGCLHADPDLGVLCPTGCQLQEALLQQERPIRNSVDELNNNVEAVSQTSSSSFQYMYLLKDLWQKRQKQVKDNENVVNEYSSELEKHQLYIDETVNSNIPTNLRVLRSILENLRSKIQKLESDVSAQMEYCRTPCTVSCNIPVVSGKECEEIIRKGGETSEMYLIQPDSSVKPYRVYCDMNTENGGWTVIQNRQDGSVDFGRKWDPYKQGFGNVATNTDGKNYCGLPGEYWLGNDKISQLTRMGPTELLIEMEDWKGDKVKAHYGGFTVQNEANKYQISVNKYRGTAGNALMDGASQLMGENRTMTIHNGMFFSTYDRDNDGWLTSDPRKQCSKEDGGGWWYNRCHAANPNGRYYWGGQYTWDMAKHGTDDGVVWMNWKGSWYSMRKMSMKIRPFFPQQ
T1 sequence (P02679 27-453): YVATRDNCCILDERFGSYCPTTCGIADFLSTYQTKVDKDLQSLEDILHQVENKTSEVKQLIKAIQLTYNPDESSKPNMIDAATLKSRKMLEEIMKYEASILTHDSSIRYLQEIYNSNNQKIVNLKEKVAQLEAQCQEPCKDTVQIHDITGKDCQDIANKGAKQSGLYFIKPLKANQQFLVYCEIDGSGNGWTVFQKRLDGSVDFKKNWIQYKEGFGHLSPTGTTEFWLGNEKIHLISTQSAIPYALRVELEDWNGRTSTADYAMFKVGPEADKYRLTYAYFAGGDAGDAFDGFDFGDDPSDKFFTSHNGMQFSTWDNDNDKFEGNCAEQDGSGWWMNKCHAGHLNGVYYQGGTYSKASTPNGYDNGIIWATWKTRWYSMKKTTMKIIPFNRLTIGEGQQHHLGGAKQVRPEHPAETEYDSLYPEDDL
Experimental: Fibrinogen is precipitated from pooled human plasma by addition of protamine sulfate (Sigma Chemical Co.). The protamine sulfate is used to prepare a stock solution of 40 mg/mL. The protamine is then added to the plasma (final concentration=10 mg/mL), mixed, and then centrifuged at 1000 g for 5 min to sediment the precipitate. The plasma is then decanted, and the remaining precipitate is dissolved in 0.2 M sodium citrate (37° C., pH 7.4).
A concentrated fibrinogen solution is prepared as in Example 3. The fibrinogen and Factor XIII concentrations are evaluated with an enzyme-linked immunosorbent assay (ELISA; AssayPro LLC, Brooklyn, N.Y.). The color intensity of the developed ELISA plates is measured with a Dynex MRX microplate reader (Dynex Technologies, Chantilly, Va.) and compared to a standard curve.
The fibrinogen concentration in the plasma is measured with the Clauss method, where plasma samples are clotted in the presence of excess thrombin in a CoaData 2000 Fibrintimer (Labor GmbH, Hamburg, Germany). The clotting times are recorded, and the fibrinogen concentration is calculated from a standard curve. […]
Heparin is used clinically in most procedures requiring anticoagulation. Heparin is evaluated for its effect on fibrinogen and Factor XIII harvesting and subsequent clotting of harvested fibrinogen. […]

With [Ca+2].[Cl-].[Cl-] [calcium chloride] the “calcium concentration giving maximum tensile strength” value [1] was 8.9 to 50 mM and the “calcium concentration giving maximum adhesion strength” value [2] was 3.6 to 100 mM.
With heparin the “change in clottability of fibrinogen when heparin is present” value [3] was “no observed changes”.
For protamine sulfate, the “fibrinogen in the plasma precipitated (maximum yield)” value (fibrinogen; blood collected into heparin 2 U/mL, protamine 11 mg/mL in plasma) was 95±1% and the “fibrinogen precipitated and recovered (percentage of fibrinogen in the original plasma)” value (fibrinogen; blood or plasma protamine concentration of 10 mg/mL) was 96±4%.
